Assay results from US11000033B2, “Ketone or oxime compound, and herbicide” (NISSAN CHEMICAL CORPORATION, priority 2014, dated 2021).

Key:
Type in all cases: in vivo
Digitaria ciliaris [1] = test: Test Example 5: herbicidal effect by foliage application, plastic box (symbol F); conditions: 3 weeks after application
Outline: (§1)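 After sowing into sterilized diluvial soil and growing two weeks under glass at 25° C. to 30° C., seedlings receive a uniform foliar spray of diluted emulsion. Damage is judged visually three weeks on.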

wheat = test: Test Example 5: effect on crop by foliage application, plastic box (symbol e); conditions: 3 weeks after application
Outline: (§2)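 Greenhouse culture at 25° C. to 30° C. followed spot-like sowing into sterilized diluvial soil, with seed covered by roughly 1.5 cm of soil.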

Veronica persica = test: Test Example 5: herbicidal effect by foliage application, plastic box (symbol R); conditions: 3 weeks after application
Outline: as §1

[2] = tested on: directly sowed rice plant; test: Test Example 3: effect on crop by foliage application, Wagner pot (symbol b)
Outline: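 Greenhouse culture at 25–30 °C of seeded rice, Cyperus difformis, Leptochloa chinensis and Echinochloa crus-galli var. crus-galli, in alluvial soil held under 0.1–0.5 cm of water in a Wagner pot.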

Stellaria media [3] = test: Test Example 4: herbicidal effect by soil treatment (symbol P)
Outline: (§3)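 Seeds were sown in sterilized diluvial soil, covered with about 1.5 cm of soil, and the soil surface was sprayed with a water-diluted emulsion of the compound at a predetermined rate. Plants grew in a greenhouse at 25° C. to 30° C.; effects were scored visually 3 weeks after application.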

Galium spurium [4] = test: Test Example 5: herbicidal effect by foliage application, plastic box (symbol Q); conditions: 3 weeks after application
Outline: as §1

rice = test: Test Example 4: effect on crop by soil treatment (symbol b)
Outline: (§4)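 Greenhouse culture at 25° C. to 30° C. followed sowing of seed in spots on sterilized diluvial soil with a soil cover close to 1.5 cm thick.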

beet [5] = test: Test Example 4: effect on crop by soil treatment (symbol f)
Outline: as §4

rapeseed = test: Test Example 4: effect on crop by soil treatment (symbol g)
Outline: as §4

Abutilon theophrasti = test: Test Example 5: herbicidal effect by foliage application, plastic box (symbol M); conditions: 3 weeks after application
Outline: as §1

Chenopodium album = test: Test Example 5: herbicidal effect by foliage application, plastic box (symbol O); conditions: 3 weeks after application
Outline: as §1

Avena fatua = test: Test Example 5: herbicidal effect by foliage application, plastic box (symbol I); conditions: 3 weeks after application
Outline: as §1

[6] = tested on: Echinochloa crus-galli var. crus-galli; test: Test Example 4: herbicidal effect by soil treatment (symbol H)
Outline: as §3

Stellaria media [7] = test: Test Example 5: herbicidal effect by foliage application, plastic box (symbol P); conditions: 3 weeks after application
Outline: as §1

beet [8] = test: Test Example 5: effect on crop by foliage application, plastic box (symbol f); conditions: 3 weeks after application
Outline: as §2

Apera spica-venti = test: Test Example 5: herbicidal effect by foliage application, plastic box (symbol L); conditions: 3 weeks after application
Outline: as §1

Lolium multiflorum Lam. = test: Test Example 4: herbicidal effect by soil treatment (symbol K)
Outline: as §3

soybean = test: Test Example 4: effect on crop by soil treatment (symbol d)
Outline: as §4

Digitaria ciliaris [9] = test: Test Example 4: herbicidal effect by soil treatment (symbol F)
Outline: as §3

Setaria viridis = test: Test Example 5: herbicidal effect by foliage application, plastic box (symbol G); conditions: 3 weeks after application
Outline: as §1

Galium spurium [10] = test: Test Example 4: herbicidal effect by soil treatment (symbol Q)
Excerpt: Herbicidal Effect Test by Soil Treatment
Sterilized diluvial soil was placed in a plastic box having a length of 21 cm, a width of 13 cm, and a depth of 7 cm. Each of the seeds of Digitaria ciliaris, Setaria viridis, Echinochloa crus-galli var. crus-galli, Avena fatua, Alopecurus myosuroides, Lolium multiflorum Lam., Apera spica-venti, Abutilon theophrasti, Amaranthus retroflexus, Chenopodium album, Stellaria media, Galium spurium, Veronica persica, corn, soybean, rice, wheat, beet, and rapeseed was sowed in a spot-like manner and was covered with the soil of a thickness of about 1.5 cm. Subsequently, the emulsion agent of the compound present invention prepared in accordance with Formulation Example 2 was diluted with water so as to be a predetermined herbicide amount and the diluted emulsion agent was uniformly applied to the surface of the soil with a small-size spray. The plastic box was placed in a greenhouse of 25° C. to 30° C. to grow plant. 3 weeks later from the herbicide application, the effect to each plant was investigated in accordance with the criteria of Test Example 1.

corn = test: Test Example 4: effect on crop by soil treatment (symbol c)
Outline: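 Steps: fill box with sterilized diluvial soil; sow seed spot-like; cover with ~1.5 cm soil; grow in greenhouse (25° C. to 30° C.).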

Alopecurus myosuroides = test: Test Example 4: herbicidal effect by soil treatment (symbol J)
Outline: as §3

rice plant = test: Test Example 5: effect on crop by foliage application, plastic box (symbol b); conditions: 3 weeks after application
Outline: as §2

[11] = application herbicide amount 320 g/ha
[12] = application herbicide amount 269 g/ha

## CON=C(C)CC1CC(OC(C)=O)=C(c2c(C)cc(C)cc2C)C1=O (stereo not drawn) [1-005]
Digitaria ciliaris [1]; 320 g/ha
  F: Digitaria ciliaris, herbicidal effect grade: 5 (Herbicidal ratio of 90% or more (almost completely withered))
wheat; 320 g/ha
  e: wheat, effect on crop grade: 5 (Herbicidal ratio of 90% or more (almost completely withered))
Veronica persica; 320 g/ha
  R: Veronica persica, herbicidal effect grade: 3 (Herbicidal ratio of 40% or higher and lower than 70%)
[2]; [11]
  effect on crop b (directly sowed rice plant), grade 0-5: 5 (Herbicidal ratio of 90% or more (almost completely withered))
Stellaria media [3]; [11]
  P (Stellaria media) herbicidal effect grade: 0 (Herbicidal ratio of 5% or lower (almost no effect))
Galium spurium [4]; 320 g/ha
  Q: Galium spurium, herbicidal effect grade: 4 (Herbicidal ratio of 70% or higher and lower than 90%)
rice; [11]
  b (directly sowed rice plant) effect on crop grade: 5 (Herbicidal ratio of 90% or more (almost completely withered))
Beet [5]; [11]
  f (beet) effect on crop grade: 4 (Herbicidal ratio of 70% or higher and lower than 90%)
rapeseed; [11]
  g (rapeseed) effect on crop grade: 4 (Herbicidal ratio of 70% or higher and lower than 90%)
Abutilon theophrasti; 320 g/ha
  M: Abutilon theophrasti, herbicidal effect grade: 4 (Herbicidal ratio of 70% or higher and lower than 90%)
Chenopodium album; 320 g/ha
  O: Chenopodium album, herbicidal effect grade: 3 (Herbicidal ratio of 40% or higher and lower than 70%)
Avena fatua; 320 g/ha
  I: Avena fatua, herbicidal effect grade: 5 (Herbicidal ratio of 90% or more (almost completely withered))
[6]; [11]
  H (Echinochloa crus-galli var. crus-galli) herbicidal effect grade: 5 (Herbicidal ratio of 90% or more (almost completely withered))
Stellaria media [7]; 320 g/ha
  P: Stellaria media, herbicidal effect grade: 4 (Herbicidal ratio of 70% or higher and lower than 90%)
Beet [8]; 320 g/ha
  f: beet, effect on crop grade: 3 (Herbicidal ratio of 40% or higher and lower than 70%)
Apera spica-venti; 320 g/ha
  L: Apera spica-venti, herbicidal effect grade: 5 (Herbicidal ratio of 90% or more (almost completely withered))
Lolium multiflorum Lam.; [11]
  K (Lolium multiflorum Lam.) herbicidal effect grade: 5 (Herbicidal ratio of 90% or more (almost completely withered))
soybean; [11]
  d (soybean) effect on crop grade: 2 (Herbicidal ratio of 20% or higher and lower than 40%)
Digitaria ciliaris [9]; [11]
  F (Digitaria ciliaris) herbicidal effect grade: 5 (Herbicidal ratio of 90% or more (almost completely withered))
Setaria viridis; 320 g/ha
  G: Setaria viridis, herbicidal effect grade: 5 (Herbicidal ratio of 90% or more (almost completely withered))
Galium spurium [10]; [11]
  Q (Galium spurium) herbicidal effect grade: 0 (Herbicidal ratio of 5% or lower (almost no effect))
corn; [11]
  c (corn) effect on crop grade: 4 (Herbicidal ratio of 70% or higher and lower than 90%)
Alopecurus myosuroides; [11]
  J (Alopecurus myosuroides) herbicidal effect grade: 5 (Herbicidal ratio of 90% or more (almost completely withered))
Rice plant; 320 g/ha
  b: directly sowed rice plant, effect on crop grade: 5 (Herbicidal ratio of 90% or more (almost completely withered))

## CON=C(C)CC1CC(OC(=O)CN(C)C(=O)c2ccccc2)=C(c2c(C)cc(C)cc2C)C1=O (stereo not drawn) [1-139]
Digitaria ciliaris [1]; 320 g/ha
  F: Digitaria ciliaris, herbicidal effect (criteria 0-5): 5 (Herbicidal ratio of 90% or more (almost completely withered))
wheat; 320 g/ha
  e: wheat, effect on crop (criteria 0-5): 5 (Herbicidal ratio of 90% or more (almost completely withered))
Veronica persica; 320 g/ha
  R: Veronica persica, herbicidal effect (criteria 0-5): 2 (Herbicidal ratio of 20% or higher and lower than 40%)
[2]; [11]
  effect on crop b (directly sowed rice plant), grade 0-5: 5 (Herbicidal ratio of 90% or more (almost completely withered))
Stellaria media [3]; 320 g/ha
  P: Stellaria media, herbicidal effect grade: 0 (Herbicidal ratio of 5% or lower (almost no effect))
Galium spurium [4]; 320 g/ha
  Q: Galium spurium, herbicidal effect (criteria 0-5): 3 (Herbicidal ratio of 40% or higher and lower than 70%)
rice; 320 g/ha
  b: directly sowed rice plant, effect grade on crop: 5 (Herbicidal ratio of 90% or more (almost completely withered))
Beet [5]; 320 g/ha
  f: beet, effect grade on crop: 0 (Herbicidal ratio of 5% or lower (almost no effect))
rapeseed; 320 g/ha
  g: rapeseed, effect grade on crop: 1 (Herbicidal ratio of 5% or higher and lower than 20%)
Abutilon theophrasti; 320 g/ha
  M: Abutilon theophrasti, herbicidal effect (criteria 0-5): 2 (Herbicidal ratio of 20% or higher and lower than 40%)
Chenopodium album; 320 g/ha
  O: Chenopodium album, herbicidal effect (criteria 0-5): 1 (Herbicidal ratio of 5% or higher and lower than 20%)
Avena fatua; 320 g/ha
  I: Avena fatua, herbicidal effect (criteria 0-5): 5 (Herbicidal ratio of 90% or more (almost completely withered))
[6]; 320 g/ha
  H: Echinochloa crus-galli var. crus-galli, herbicidal effect grade: 5 (Herbicidal ratio of 90% or more (almost completely withered))
Stellaria media [7]; 320 g/ha
  P: Stellaria media, herbicidal effect (criteria 0-5): 3 (Herbicidal ratio of 40% or higher and lower than 70%)
Beet [8]; 320 g/ha
  f: beet, effect on crop (criteria 0-5): 0 (Herbicidal ratio of 5% or lower (almost no effect))
Apera spica-venti; 320 g/ha
  L: Apera spica-venti, herbicidal effect (criteria 0-5): 5 (Herbicidal ratio of 90% or more (almost completely withered))
Lolium multiflorum Lam.; 320 g/ha
  K: Lolium multiflorum Lam., herbicidal effect grade: 5 (Herbicidal ratio of 90% or more (almost completely withered))
soybean; 320 g/ha
  d: soybean, effect grade on crop: 0 (Herbicidal ratio of 5% or lower (almost no effect))
Digitaria ciliaris [9]; 320 g/ha
  F: Digitaria ciliaris, herbicidal effect grade: 5 (Herbicidal ratio of 90% or more (almost completely withered))
Setaria viridis; 320 g/ha
  G: Setaria viridis, herbicidal effect (criteria 0-5): 5 (Herbicidal ratio of 90% or more (almost completely withered))
Galium spurium [10]; 320 g/ha
  Q: Galium spurium, herbicidal effect grade: 0 (Herbicidal ratio of 5% or lower (almost no effect))
corn; 320 g/ha
  c: corn, effect grade on crop: 5 (Herbicidal ratio of 90% or more (almost completely withered))
Alopecurus myosuroides; 320 g/ha
  J: Alopecurus myosuroides, herbicidal effect grade: 5 (Herbicidal ratio of 90% or more (almost completely withered))
Rice plant; 320 g/ha
  b: directly sowed rice plant, effect on crop (criteria 0-5): 5 (Herbicidal ratio of 90% or more (almost completely withered))

## CC(=O)C(C)C1CC(O)=C(c2c(C)cc(C)cc2C)C1=O (stereo not drawn) [2-005]
Digitaria ciliaris [1]; 269 g/ha
  F: Digitaria ciliaris, herbicidal effect grade: 3 (Herbicidal ratio of 40% or higher and lower than 70%)
wheat; 269 g/ha
  e: wheat, effect on crop grade: 0 (Herbicidal ratio of 5% or lower (almost no effect))
Veronica persica; 269 g/ha
  R: Veronica persica, herbicidal effect grade: 0 (Herbicidal ratio of 5% or lower (almost no effect))
[2]; [12]
  effect on crop b (directly sowed rice plant), grade 0-5: 5 (Herbicidal ratio of 90% or more (almost completely withered))
Stellaria media [3]; [12]
  P: Stellaria media, herbicidal effect grade: 0 (Herbicidal ratio of 5% or lower (almost no effect))
Galium spurium [4]; 269 g/ha
  Q: Galium spurium, herbicidal effect grade: 0 (Herbicidal ratio of 5% or lower (almost no effect))
rice; [12]
  b: directly sowed rice plant, effect on crop grade: 5 (Herbicidal ratio of 90% or more (almost completely withered))
Beet [5]; [12]
  f: beet, effect on crop grade: 0 (Herbicidal ratio of 5% or lower (almost no effect))
rapeseed; [12]
  g: rapeseed, effect on crop grade: 4 (Herbicidal ratio of 70% or higher and lower than 90%)
Abutilon theophrasti; 269 g/ha
  M: Abutilon theophrasti, herbicidal effect grade: 0 (Herbicidal ratio of 5% or lower (almost no effect))
Chenopodium album; 269 g/ha
  O: Chenopodium album, herbicidal effect grade: 0 (Herbicidal ratio of 5% or lower (almost no effect))
Avena fatua; 269 g/ha
  I: Avena fatua, herbicidal effect grade: 3 (Herbicidal ratio of 40% or higher and lower than 70%)
[6]; [12]
  H: Echinochloa crus-galli var. crus-galli, herbicidal effect grade: 5 (Herbicidal ratio of 90% or more (almost completely withered))
Stellaria media [7]; 269 g/ha
  P: Stellaria media, herbicidal effect grade: 0 (Herbicidal ratio of 5% or lower (almost no effect))
Beet [8]; 269 g/ha
  f: beet, effect on crop grade: 2 (Herbicidal ratio of 20% or higher and lower than 40%)
Apera spica-venti; 269 g/ha
  L: Apera spica-venti, herbicidal effect grade: 3 (Herbicidal ratio of 40% or higher and lower than 70%)
Lolium multiflorum Lam.; [12]
  K: Lolium multiflorum Lam., herbicidal effect grade: 5 (Herbicidal ratio of 90% or more (almost completely withered))
soybean; [12]
  d: soybean, effect on crop grade: 0 (Herbicidal ratio of 5% or lower (almost no effect))
Digitaria ciliaris [9]; [12]
  F: Digitaria ciliaris, herbicidal effect grade: 5 (Herbicidal ratio of 90% or more (almost completely withered))
Setaria viridis; 269 g/ha
  G: Setaria viridis, herbicidal effect grade: 4 (Herbicidal ratio of 70% or higher and lower than 90%)
Galium spurium [10]; [12]
  Q: Galium spurium, herbicidal effect grade: 0 (Herbicidal ratio of 5% or lower (almost no effect))
corn; [12]
  c: corn, effect on crop grade: 0 (Herbicidal ratio of 5% or lower (almost no effect))
Alopecurus myosuroides; [12]
  J: Alopecurus myosuroides, herbicidal effect grade: 4 (Herbicidal ratio of 70% or higher and lower than 90%)
Rice plant; 269 g/ha
  b: directly sowed rice plant, effect on crop grade: 5 (Herbicidal ratio of 90% or more (almost completely withered))
